These results are taken from patent publication US20260335398A1, “METHODS FOR TREATING PANCREATIC CANCER WITH A COMBINATION OF DES-METHYL PATEAMINE A AND A CLASS I HDAC INHIBITOR” (Baylor University, priority 2023, published 2026).

The test system of data set [1] is KLM and MIA PaCa-2 cells. In words: Nascent RNA synthesis by EU labeling (FIG. 9B). The class given is cell-based. Conditions: total 18 h, 5-EU incorporation. The method, then:
FIG. 9B left panel compares EU-labeled nascent RNA and (Hoechst counterstain) in KLM cells treated with combination and single agents. Scale bar: 1 μm. FIG. 9B right panels present quantification of fluorescence intensities of nascent RNA synthesis in both KLM and MIA PaCa-2 cell lines. Statistical significance was determined by one-way ANOVA using Tukey multiple comparison's test, ****p value<0.0001, **p value<0.0002, **p value<0.002.
This apparent hypertranscription observed with the combination, was confirmed by the increase in nascent RNA output above the level of normal cells, following treatment for a total of 18 hours (i.e., 6-hour romidepsin followed by 12-hour washout with or without 2 nM DMPatA), quantified using incorporation of the modified RNA precursor 5-EU. […] Because HDAC inhibitors cause histone hyperacetylation and having observed the increase in gene expression following treatment with the combination, the impact of the combination on histone acetylation was assessed.
To detect changes in the global RNA transcription we used the Click-iT RNA Alexa Fluor 594 Imaging Kit (Invitrogen, #C10330). Briefly, cells were cultured in complete media and pulsed for 60 min with alkyne-modified nucleoside, 5-ethynyl uridine (EU) at a final concentration of 1 mM. […]

Data set [2] has as its system H3K9ac. In words: Immunoblot of H3K9ac protein levels (FIGS. 5A-5C, 9C). In kind it is cell-based. The conditions noted are these: romidepsin 15 nM 6 h; with or without DMPatA 2 nM. On the procedure:
FIGS. 5A-5C are images of immunoblots of protein levels from whole cell extracts of MIA PaCa-2 cell line following treatment with representative combinations Class 1 HDAC inhibitors and DMPatA, DMPatA alone, and HDAC inhibitor alone. FIG. 5A compares immunoblots of H3K9ac (top panel) and GAPDH (bottom panel) protein levels from whole cell extracts of MIA PaCa-2 cells following treatment with the combination of romidepsin and DMPatA and single drugs. Romidepsin treatment was for 6 hours. FIG. 5B compares immunoblots of H3K9ac protein levels from whole cell extracts of MIA PaCa-2 and KLM cells untreated or following treatment with the combination of entinostat and DMPatA and single drugs. Treatments were for various timepoints ranging from 6 to 24 hours. […]
This apparent hypertranscription observed with the combination, was confirmed by the increase in nascent RNA output above the level of normal cells, following treatment for a total of 18 hours (i.e., 6-hour romidepsin followed by 12-hour washout with or without 2 nM DMPatA), quantified using incorporation of the modified RNA precursor 5-EU. […] Because HDAC inhibitors cause histone hyperacetylation and having observed the increase in gene expression following treatment with the combination, the impact of the combination on histone acetylation was assessed. […]
For orientation: A western blot detects proteins with antibodies after separation by electrophoresis.

For data set [3] the following is noted: patients, 4-hour infusion; cited from earlier work.
Data set [4] in a line: Body weight of xenograft mice (FIG. 2B). In kind it is in vivo, athymic nude mice. Conditions: IP; romidepsin 0.75 mg/kg, DMPatA 0.075 mg/kg. The text has this: FIGS. 2A and 2B illustrate the results of a MIA PaCa-2 xenograft model of PDAC in male athymic nude mice. FIG. 2A compares tumor growth (mm^3) in mice treated with the indicated concentrations of combination, romidepsin and DMPatA using IP route and vehicles described in the materials and methods section below. FIG. 2B compares body weight (g) of mice treated with the combination and single agents following treatment. FIGS. 2C and 2D compare quantification of H3K9ac and c-MYC antibodies. Frozen sections from MIA PaCa-2 xenograft tumor tissues were subjected to immunohistochemical analysis using antibodies against H3K9ac, and c-MYC. Fluorescence images were captured using fluorescent microscopy and the fluorescent signal from H3K9ac and c-MYC antibodies were quantified. To quantify fluorescence intensity at least 500 cells per condition were measured for each antibody at 40× magnification. The median of the signal intensity is shown. Statistical significance was determined by one-way ANOVA using Tukey multiple comparisons test, ****p value<0.0001.
Animal studies were performed according to Institutional Animal Care and Use Committee (IACUC) protocol number AC-AABD2601. Following the establishment of initial dose levels for individual drugs, efficacy of the combination and single agents in a MIA PaCa-2 xenograft model was assessed at a tolerable dose and schedule. […]

The structures appear in SMILES notation.

`C/C=C1\NC(=O)[C@H]2CSSCC/C=C/[C@H](CC(=O)N[C@H](C(C)C)C(=O)N2)OC(=O)[C@H](C(C)C)NC1=O` [romidepsin]: the “nascent RNA (mRNA) synthesis” value in data set [1] is “increase in RNA synthesis”. Besides, the H3K9 acetylation entry in data set [2] is “only a small effect”. For the same compound, the half-life result in data set [3] is “approximately 3.5 hour”. In addition, the “body weight vs vehicle” value in data set [4] is listed as “neither the single agent nor the combination treatments had a significant impact on weight”.
